The source of these data is PubChem BioAssay (NCI).

Structures are written as SMILES. “And” between values parts separate entries of the source, which are not always exact repeats. Equal values may be shown once.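 Five concentrations, 48 hours, 96-well plates. GI50 is the concentration that inhibits growth by half. TGI marks complete inhibition of growth.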

Test systems include A549 NSCLC; CAKI-1 renal; EKVX NSCLC; HCC-2998 colon; IGROV1 ovarian; OVCAR-5 ovarian; SF-539 CNS; SNB-19 CNS; TK-10 renal; UO-31 renal.
Holding throughout (assay): NCI anticancer screen, dose series, 48 h

On to `COc1ccc(CNC(=O)c2ccc(-c3cc(-c4nnc(C)o4)ccc3C)cc2)cc1`, for which the GI50 was 22.8 µM in the assay on A549 NSCLC; 19.5 µM with CAKI-1 renal; 7.68 µM in the assay on EKVX NSCLC; greater than 25 µM with HCC-2998 colon; greater than 22.6 µM with IGROV1 ovarian; greater than 25 µM with OVCAR-5 ovarian. The GI50 was greater than 25 µM in the assay with SF-539 CNS, greater than 22.8 µM in the assay on SNB-19 CNS, greater than 25 µM with TK-10 renal and 6.03 µM in the assay on UO-31 renal. Also, the TGI in the assay with A549 NSCLC, in the assay with CAKI-1 renal, with EKVX NSCLC, in the assay on HCC-2998 colon, in the assay with IGROV1 ovarian and with OVCAR-5 ovarian was greater than 25 µM in each case. Further, the TGI in the assay with SF-539 CNS, in the assay with SNB-19 CNS, in the assay on TK-10 renal and in the assay with UO-31 renal was greater than 25 µM throughout.

Turning to `C#CCn1cc(C=C2C(=O)NC(=S)NC2=O)c2cc(Cl)ccc21`, the GI50 with A549 NSCLC was 3.63 µM; in the assay with CAKI-1 renal, 1.84 µM; in the assay with EKVX NSCLC it was 2.14 µM; with HCC-2998 colon, 1.75 µM; in the assay on IGROV1 ovarian it was 2.13 µM; in the assay with OVCAR-5 ovarian, 1.96 µM. In addition, the GI50 was 1.82 µM in the assay with SF-539 CNS, 1.72 µM in the assay on SNB-19 CNS, 2.36 µM in the assay on TK-10 renal and 1.7 µM in the assay with UO-31 renal. Also, the TGI with A549 NSCLC was 16.6 µM; with CAKI-1 renal it was 4.06 µM; in the assay on EKVX NSCLC it was 5.92 µM; in the assay with HCC-2998 colon, 3.39 µM; in the assay on IGROV1 ovarian, 5.1 µM; in the assay with OVCAR-5 ovarian, 4.12 µM. In addition, the TGI in the assay with SF-539 CNS is 3.49 µM; in the assay with SNB-19 CNS, 3.16 µM; in the assay with TK-10 renal, 5.95 µM; in the assay on UO-31 renal, 3.44 µM.

Take `CC1(C)Oc2ccccc2N2O[C@@H]3C(=O)N(c4ccccc4)C(=O)[C@@H]3C21c1ccccc1` (some centres undefined): the TGI in the assay with A549 NSCLC is 48.4 µM; with CAKI-1 renal, 60.8 µM; in the assay with EKVX NSCLC, greater than 100 µM; with HCC-2998 colon, greater than 100 µM; with IGROV1 ovarian, greater than 100 µM; with OVCAR-5 ovarian, greater than 100 µM. Moreover, the TGI with SF-539 CNS was 31.7 µM; with SNB-19 CNS it was 38.1 µM; with TK-10 renal it was 33.1 µM; in the assay on UO-31 renal, greater than 100 µM.

`COc1cc(-c2nn3c(=O)n(-c4ccc(Cl)cc4)c(=O)nc3s2)cc(OC)c1OC`: the GI50 in the assay with A549 NSCLC is greater than 50 µM; in the assay with CAKI-1 renal, greater than 50 µM; in the assay on EKVX NSCLC, greater than 50 µM; with HCC-2998 colon, greater than 50 µM; with IGROV1 ovarian, greater than 50 µM; with SF-539 CNS, 32.9 µM. Besides, the GI50 in the assay with SNB-19 CNS is 37.4 µM; with TK-10 renal, 19.7 µM; in the assay with UO-31 renal, greater than 50 µM. The TGI was greater than 100 µM in the assay with A549 NSCLC; greater than 62.2 µM in the assay with CAKI-1 renal; greater than 100 µM in the assay with EKVX NSCLC; greater than 100 µM in the assay on HCC-2998 colon; greater than 100 µM in the assay on IGROV1 ovarian; greater than 100 µM in the assay with OVCAR-5 ovarian. The TGI with SF-539 CNS is 50 µM and 45.6 µM; in the assay with SNB-19 CNS it was 50 µM and 83.8 µM; in the assay on TK-10 renal, 50 µM and 29.6 µM; in the assay on UO-31 renal, greater than 100 µM.
